Data published in US20220259167A1 (UNIVERSITY HEALTH NETWORK, priority 2019, published 2022).
“And” between values parts separate entries of the source, which are not always exact repeats. Identical values can stand only once. Like-named read-outs stand apart in the source and are kept apart here.

Experiments:
SIM-A9 cells = experiment: Anti-inflammation assay: TNF-α production from LPS stimulated SIM-A9 cells (ELISA); assay type: cell-based; details: compound 2.7 μM; LPS stimulated SIM-A9 cells; read-out: TNF-α Inhibition
Aβ 1-40 = Aβ 1-40 (Homo sapiens, UniProt P05067); experiment: Aβ ThT aggregation (fibrillization) assay; assay type: biochemical; details: compound at 100 μM
[1] = target: biotinylated amyloid-beta(1-42) (bioAbeta42) (Homo sapiens, UniProt P05067); assay type: biochemical
[2] = Example 5, versus DMSO control, read-out: Inhibition of Aβ fibrillization at concentration 100 μM, Inhibition %
[3] = Example 5, ND = inhibition activity not detected over 200 μM, read-out: Inhibition of Aβ oligomerization, μM IC50
[4] = Example 2, read-out: Anti-Aβ oligomerization IC50
[5] = Example 3, read-out: % inhibition of Aβ fibrillization (at 100 μ M)

Chain of biotinylated amyloid-beta(1-42) (bioAbeta42) (P05067 672-713): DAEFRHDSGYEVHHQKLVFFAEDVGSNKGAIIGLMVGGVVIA
Chain of Aβ 1-40 (P05067 672-711): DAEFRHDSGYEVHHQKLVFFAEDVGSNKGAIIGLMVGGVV

Compound	inhibition at 2.7 µM (SIM-A9 cells) [%]	IC50 [1, 3] [µM]	further results
COc1ccc(C(=O)O)c(NCc2ccco2)c1 [Compound 5-LV-54A]	16	–	–
COc1ccc(C(=O)O)c(NCc2ccccc2)c1 [Compound 5-LV-54B, 2-(Benzylamino)-4-methoxybenzoic Acid]	30	–	–
COc1ccc(C(=O)O)c(NCc2ccoc2)c1 [Compound 5-LV-56A]	32	–	–
O=C(O)c1ccc(Cl)cc1NCc1ccccc1 [LD3-305, 2-(Benzylamino)-4-chlorobenzoic Acid]	30	–	–
O=C(O)c1ccc(Cl)cc1NCCc1ccccc1 [LD3-306, 4-Chloro-2-(phenethylamino)benzoic Acid]	21	–	–
O=C(O)c1ccc(Cl)cc1NCc1cccs1 [LD3-309, 4-Chloro-2-((thiophen-2-ylmethyl)amino)benzoic Acid]	18	–	–
O=C(O)c1ccc(Cl)cc1NCc1ccoc1 [LD3-310, 4-Chloro-2-((furan-3-ylmethyl)amino)benzoic Acid]	24	–	–
O=C(O)c1cc(S(=O)(=O)Nc2ccccc2)c(Cl)cc1NCc1ccco1 [SI-W080, 4-Chloro-2-((furan-2-ylmethyl)amino)-5-(N-phenylsulfamoyl) benzoic acid]	–	168 ± 29	inhibition at 100 µM (Aβ 1-40; [2]): 17.4%
CNC(=O)c1cc(C(=O)OC)c(NCc2ccco2)cc1Cl [SIV-W155, Methyl 4-chloro-2-((furan-2-ylmethyl)amino)-5-(methylcarbamoyl)benzoate]	20	–	–
COC(=O)c1cc(C(=O)N2CCCCC2)c(Cl)cc1NCc1ccco1 [SIV-W160, Methyl 4-chloro-2-((furan-2-ylmethyl)amino)-5-(piperidine-1-carbonyl)benzoate]	25	–	–
NC(=O)c1cc(C(=O)O)c(NCc2ccco2)cc1Cl [SIV-W164, 5-Carbamoyl-4-chloro-2((furan-2-ylmethyl)amino) Benzoic Acid]	–	> 200	–
O=C(O)c1cc(C(=O)N2CCOCC2)c(Cl)cc1NCc1ccco1 [SIV-W166, 4-Chloro-2-((furan-2-ylmethyl)amino)-5-(morpholine-4-carbonyl)benzoic acid]	25	> 200	–
O=C(O)c1cc(C(=O)N2CCCCC2)c(Cl)cc1NCc1ccco1 [SIV-W167, 4-Chloro-2-((furan-2-ylmethyl)amino)-5-(piperidine-1-carbonyl)benzoic Acid]	–	> 200	–
CNC(=O)c1cc(C(=O)O)c(NCc2ccco2)cc1Cl [SIV-W168, 4-Chloro-2-((furan-2-ylmethyl)amino)-5-(methylcarbamoyl)benzoic Acid]	27	> 200	–
CCNC(=O)c1cc(C(=O)OC)c(NCc2ccco2)cc1Cl [SIV-W172, Methyl 4-chloro-5-(ethylcarbamoyl)-2-((furan-2-ylmethyl)amino)benzoate]	18	–	–
CN(C)C(=O)c1cc(C(=O)O)c(NCc2ccco2)cc1Cl [SIV-W173, 4-Chloro-5-(dimethylcarbamoyl)-2((furan-2-ylmethyl)amino)benzoic Acid]	25	> 200	–
CCNC(=O)c1cc(C(=O)O)c(NCc2ccco2)cc1Cl [SIV-W174, 4-Chloro-5-(ethylcarbamoyl)-2((furan-2-ylmethyl)amino)benzoic Acid]	21	> 200	–
COC(=O)c1cc(C(=O)Nc2ccccc2)c(Cl)cc1NCc1ccco1 [SIV-W178, Methyl 4-chloro-2-((furan-2-ylmethyl)amino)-5-(phenylcarbamoyl)benzoate]	12	–	–
O=C(Nc1ccccc1)c1cc(C(=O)O)c(NCc2ccco2)cc1Cl [SIV-W179, 4-Chloro-2((furan-2-ylmethyl)amino)-5-(phenylcarbamoyl)benzoic Acid]	22	> 200	–
O=C(O)c1ccc(Cl)cc1NCc1ccco1 [WW001, 4-Chloro-2-((furan-2-ylmethyl)amino) Benzoic Acid]	–	> 200	inhibition at 100 µM (Aβ 1-40; [2]): 20.2%
O=C(O)c1cc(S(=O)(=O)NC2CC2)c(Cl)cc1NCc1ccco1 [WW030, 4-Chloro-5-(N-cyclopropylsulfamoyl)-2-((furan-2-ylmethyl)amino)benzoic Acid]	–	> 200	–
CNS(=O)(=O)c1cc(C(=O)O)c(NCc2ccco2)cc1Cl [WW032, 4-chloro-2-((furan-2-ylmethyl)amino)-5-(N-methylsulfamoyl) Benzoic Acid]	–	53 ± 3.37	Inhibition of Aβ fibrillization at concentration 100 μM, Inhibition % (Aβ 1-40; Example 5, versus DMSO control): Pro- fibrilliza- tion; IC50 [1, 4]: 55.1 µM

Compound	inhibition at 2.7 µM (SIM-A9 cells) [%]	IC50 [1, 3] [µM]	further results
O=C(O)c1cc(S(=O)(=O)NCc2ccccc2)c(Cl)cc1NCc1ccco1 [WW035, 5-(N-benzylsulfamoyl)-4-chloro-2-((furan-2-ylmethyl)amino)benzoic Acid]	–	> 200	–
O=C(O)c1cc(S(=O)(=O)NCc2ccc(C(O)C(F)(F)F)cc2)c(Cl)cc1NCc1ccco1 (centres unmarked) [WW036, 4-Chloro-2-((furan-2-ylmethyl)amino)-5-(N-(4-(2,2,2-trifluoro-1-hydroxyethyl)benzyl)sulfamoyl)benzoic Acid]	–	68.5 ± 18.7	Inhibition of Aβ fibrillization at concentration 100 μM, Inhibition % (Aβ 1-40; Example 5, versus DMSO control): Pro- fibrilliza- tion
O=C(O)c1cc(S(=O)(=O)N2CCOCC2)c(Cl)cc1NCc1ccco1 [WW049, 4-Chloro-2((furan-2-ylmethyl)amino)-5-(morpholinosulfony)benzoic Acid]	–	41.2 ± 12.8	Inhibition of Aβ fibrillization at concentration 100 μM, Inhibition % (Aβ 1-40; Example 5, versus DMSO control): Pro- fibrilliza- tion; IC50 [1, 4]: 38.5 µM
CN(Cc1ccccc1)S(=O)(=O)c1cc(C(=O)O)c(NCc2ccco2)cc1Cl [WW052, 5-(N-Benzyl-N-methylsulfamoyl)-4-chloro-2-((furan-2-ylmethyl)amino) benzoic Acid]	24.1	21.9 ± 7.36	IC50 [1, 4]: 21.7 µM
CC(NS(=O)(=O)c1cc(C(=O)O)c(NCc2ccco2)cc1Cl)c1ccccc1 (centres unmarked) [WW053, 4-Chloro-2-((furan-2-ylmethyl)amino)-5-(N-(1-phenylethyl)sulfamoyl) benzoic Acid]	–	41.1 ± 20.4	IC50 [1, 4]: 38.5 µM
O=C(O)c1cc(S(=O)(=O)NCCc2ccccc2)c(Cl)cc1NCc1ccco1 [WW056, 4-Chloro-2-((furan-2-ylmethyl)amino)-5-(N-phenethylsulfamoyl) Benzoic Acid]	13	> 200	–
CCNS(=O)(=O)c1cc(C(=O)O)c(NCc2ccco2)cc1Cl [WW057, 4-Chloro-5-(N-ethylsulfamoyl)-2-((furan-2-ylmethyl)amino) Benzoic Acid]	–	137 ± 11.9	–
CN(C)S(=O)(=O)c1cc(C(=O)O)c(NCc2ccco2)cc1Cl [WW062, 4-Chloro-5-(N, N-dimethylsulfamoyl)-2-((furan-2-ylmethyl)amino) Benzoic Acid]	–	113 ± 22.8	Inhibition of Aβ fibrillization at concentration 100 μM, Inhibition % (Aβ 1-40; Example 5, versus DMSO control): Pro- fibrilliza- tion
COc1ccc(CNS(=O)(=O)c2cc(C(=O)O)c(NCc3ccco3)cc2Cl)cc1 [WW063, 4-Chloro-2-((furan-2-ylmethyl)amino)-5-(N-(4-methoxybenzyl)sulfamoyl) Benzoic Acid]	–	> 200	–
CCCCCCNS(=O)(=O)c1cc(C(=O)O)c(NCc2ccco2)cc1Cl [WW064, 4-Chloro-2-((furan-2-ylmethyl)amino)-5-(N-hexylsulfamoyl) Benzoic Acid]	–	47.8 ± 14.3	inhibition at 100 µM (Aβ 1-40; [5]): 39.2%; inhibition at 100 µM (Aβ 1-40; [2]): 39.2%; IC50 [1, 4]: 46.1 µM
Cc1ccc(CNS(=O)(=O)c2cc(C(=O)O)c(NCc3ccco3)cc2Cl)cc1 [WW065, 4-Chloro-2-((furan-2-ylmethyl)amino)-5-(N-(4-methylbenzyl)sulfamoyl) Benzoic Acid]	20	> 200	–
O=C(O)c1ccc(F)cc1NCc1ccco1 [WW071, 4-Fluoro-2-((furan-2-ylmethyl)amino)benzoic Acid]	–	130 ± 25.8	–
O=C(O)c1ccc(Br)cc1NCc1ccco1 [WW073, 4-Bromo-2-((furan-2-ylmethyl)amino) Benzoic Acid]	27	154 ± 33.8	–
O=C(O)c1cc(S(=O)(=O)NC2CCCCC2)c(Cl)cc1NCc1ccco1 [WW082, 4-Chloro-5-(N-cyclohexylsulfamoyl)-2-((furan-2-ylmethyl)amino) Benzoic Acid]	11	116 ± 13.8	–
CNS(=O)(=O)c1cc(C(=O)N(C)C)c(NCc2ccco2)cc1Cl [WW103, 4-Chloro-2-((furan-2-ylmethyl)amino)-N, N-dimethyl-5-(N-methylsulfamoyl) Benzamide]	–	–	inhibition at 100 µM (Aβ 1-40; [5]): 25.2%; inhibition at 100 µM (Aβ 1-40; [2]): 25.2%; IC50 ([1]; Example 5, ND = inhibition activity not detected over 200 μM, listed as SII-W103, read-out: Inhibition of Aβ oligomerization, μM IC50): 6.5 µM and 6.56 µM
CNS(=O)(=O)c1cc(CO)c(NCc2ccco2)cc1Cl [WW109, 2-Chloro-4-((furan-2-ylmethyl)amino)-5-(hydroxymethyl)-N-methylbenzenesulfonamide]	21	117 ± 3.95	–
CNS(=O)(=O)c1cc(-c2nnn[nH]2)c(NCc2ccco2)cc1Cl [WW121]	2	70.5 ± 15.7	–
CNS(=O)(=O)c1cc(-c2noc(=O)[nH]2)c(NCc2ccco2)cc1Cl [WW187, 2-Chloro-4-((furan-2-ylmethyl)amino)-N-methyl-5-(5-oxo-2,5-dihydro-1,2,4-oxadiazol-3-yl)benzenesulfonamide]	20	> 200	–
Cc1ccc(CNc2cc(F)ccc2C(O)C(F)(F)F)c(C)c1 (centres unmarked) [WW-024]	11.2	–	–
COc1c(C)ccc(CNc2cc(F)ccc2C(O)C(F)(F)F)c1OC (centres unmarked) [WW-028]	19.9	–	–
COC(=O)c1cc(S(N)(=O)=O)c(Cl)cc1NCc1ccco1 [WW-161]	24	–	–
